Data: patent US20220389009A1, “SUBSTITUTED 1,6-NAPHTHYRIDINE INHIBITORS OF CDK5” (Goldfinch Bio, Inc., priority 2019, published 2022)

Assays:
CDK2/CycA2 = CDK2/CycA2 (Homo sapiens, UniProt P24941); assay: CDK2 mobility shift assay (enzymatic activity of CDK2/CycA2); assay type: biochemical; settings: 1.25 nM CDK2/CycA2, 37 μM ATP, FL Peptide 18, 120 min at room temperature; read-out: CDK2 IC50
Outline: (§1)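 Phosphorylation of 1.5 μM fluorescent peptide was read by microfluidic mobility shift and fitted to IC50 (4-parameter), normalized to no-compound and no-enzyme controls. CDK5/p25 ran at 0.154 nM with […] ATP for 60 min, using peptide 29. CDK2/CycA2 ran at 1.25 nM with 37 μM ATP for 120 min, using peptide 18. Both included a 30-min compound preincubation in pH 7.5 buffer.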

CDK5/p25 = CDK5/p25 (Homo sapiens, UniProt Q00535); assay: CDK5 mobility shift assay (enzymatic activity of CDK5/p25); assay type: biochemical; settings: for IC50: 0.154 nM CDK5/p25, FL peptide 29, 60 min at room temperature, read-out: CDK5 IC50; for CDK5/CDK2 specificity: fold more active against CDK5 than CDK2
CDK5/p25, sequence (Q00535 whole entry): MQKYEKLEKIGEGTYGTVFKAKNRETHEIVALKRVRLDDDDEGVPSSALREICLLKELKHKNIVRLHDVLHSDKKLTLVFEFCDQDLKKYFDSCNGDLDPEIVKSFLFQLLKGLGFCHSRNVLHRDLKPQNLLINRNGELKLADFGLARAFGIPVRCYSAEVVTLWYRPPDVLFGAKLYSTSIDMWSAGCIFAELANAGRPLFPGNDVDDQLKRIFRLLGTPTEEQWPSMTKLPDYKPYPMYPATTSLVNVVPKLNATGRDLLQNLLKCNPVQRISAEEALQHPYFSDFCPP
CDK5/p25, sequence (Q15078 99-307 partner limits assumed): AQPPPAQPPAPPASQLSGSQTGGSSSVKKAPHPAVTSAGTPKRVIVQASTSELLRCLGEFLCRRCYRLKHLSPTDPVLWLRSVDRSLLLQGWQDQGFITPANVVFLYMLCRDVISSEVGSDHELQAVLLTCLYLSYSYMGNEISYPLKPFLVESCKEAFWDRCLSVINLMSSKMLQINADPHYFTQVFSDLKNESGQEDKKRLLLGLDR
Outline: as §1

IC50 (CDK2/CycA2) [nM] | IC50 (CDK5/p25) [nM] | SMILES | CDK5/CDK2 specificity (CDK5/p25)
> 1000 | 10 to 100 | N#Cc1cccc(-c2ccc(Nc3cc4nc(C(O)C5CCN(CCO)CC5)ccc4cn3)c(F)c2)c1 (single isomer, unassigned) [Compound 251, 3′-fluoro-4′-[(2-[hydroxy[1-(2-hydroxyethyl)piperidin-4-yl]methyl]-1,6-naphthyridin-7-yl)amino]-[1,1′-biphenyl]-3-carbonitrile] | ++ (greater than 10-fold and less than or equal to 100-fold more active against CDK5 than CDK2)
10 to 100 | < 10 | CN1CCC(C(C)(O)c2ccc3cnc(Nc4cccc(N5CCCC5=O)c4)cc3n2)CC1 (stereo not drawn) [Compound 350] | ++ (greater than 10-fold and less than or equal to 100-fold more active against CDK5 than CDK2)
> 1000 | < 10 | Cc1cc(OCCC(N)=O)ccc1Nc1cc2nc(S(=O)(=O)C3CCN(C)CC3)ccc2cn1 [Compound 258] | +++ (greater than 100-fold more active against CDK5 than CDK2)
100 to 1000 | < 10 | CCc1ccc(F)c(Nc2cc3nc(S(=O)(=O)C4CCN(C)CC4)ccc3cn2)c1 [Compound 379] | +++ (greater than 100-fold more active against CDK5 than CDK2)
> 1000 | > 1000 | CN1CCC(S(=O)(=O)c2ccc3cnc(Nc4ccccc4N4CCOCC4)cc3n2)CC1 [Compound 266] | ++ (greater than 10-fold and less than or equal to 100-fold more active against CDK5 than CDK2)
10 to 100 | < 10 | CN1CCC(S(=O)(=O)c2ccc3cnc(Nc4ccc(N5CCNC(=O)C5)cc4)cc3n2)CC1 [Compound 305] | ++ (greater than 10-fold and less than or equal to 100-fold more active against CDK5 than CDK2)
> 1000 | 10 to 100 | Fc1cc(-n2cccn2)ccc1Nc1cc2nc(C=C3CCNCC3)ccc2cn1 [Compound 130, N-[2-fluoro-4-(pyrazol-1-yl)phenyl]-2-(piperidin-4-ylidenemethyl)-1,6-naphthyridin-7-amine] | ++ (greater than 10-fold and less than or equal to 100-fold more active against CDK5 than CDK2)
100 to 1000 | < 10 | COC(=O)c1ccn(-c2ccc(Nc3cc4nc(C(O)C5CCN(C)CC5)ccc4cn3)c(F)c2)n1 (stereo not drawn) [Compound 347] | +++ (greater than 100-fold more active against CDK5 than CDK2)
> 1000 | 100 to 1000 | CN1CCC(C)(Nc2ccc3cnc(Nc4ccc(-n5ccc(CO)n5)cc4F)cc3n2)CC1 [Compound 140, [1-[4-([2-[(1,4-dimethylpiperidin-4-yl)amino]-1,6-naphthyridin-7-yl]amino)-3-fluorophenyl]pyrazol-3-yl]methanol] | + (10-fold or less more active against CDK5 than CDK2)
10 to 100 | < 10 | CN1CCC([C@@](C)(O)c2ccc3cnc(Nc4ccc(-n5cc(C(=O)O)cn5)cc4F)cc3n2)CC1 [Compound 362, 1-[3-fluoro-4-([2-[(1R)-1-hydroxy-1-(1-methylpiperidin-4-yl)ethyl]-1,6-naphthyridin-7-yl]amino)phenyl]pyrazole-4-carboxylic acid] | ++ (greater than 10-fold and less than or equal to 100-fold more active against CDK5 than CDK2)
> 1000 | 10 to 100 | CC(C)(O)c1ccn(-c2ccc(Nc3cc4nc(S(=O)(=O)C5CCN(CC6COC6)CC5)ccc4cn3)c(F)c2)n1 [Compound 340] | ++ (greater than 10-fold and less than or equal to 100-fold more active against CDK5 than CDK2)
100 to 1000 | < 10 | COC(=O)c1ccn(-c2ccc(Nc3cc4nc(S(=O)(=O)C5CCN(C)CC5)ccc4cn3)c(F)c2)n1 [Compound 290] | +++ (greater than 100-fold more active against CDK5 than CDK2)
100 to 1000 | < 10 | C=C(c1ccc2cnc(Nc3ccc(-n4ccc(CO)n4)cc3F)cc2n1)C1CCNCC1 [Compound 139, [1-[3-fluoro-4-([2-[1-(piperidin-4-yl)ethenyl]-1,6-naphthyridin-7-yl]amino)phenyl]pyrazol-3-yl]methanol] | +++ (greater than 100-fold more active against CDK5 than CDK2)
10 to 100 | < 10 | CN1CCC(S(=O)(=O)c2ccc3cnc(Nc4ccc(N5CCS(=O)(=O)CC5)cc4)cc3n2)CC1 [Compound 296] | ++ (greater than 10-fold and less than or equal to 100-fold more active against CDK5 than CDK2)
> 1000 | 100 to 1000 | O=C(O)[C@H]1CNCC[C@@H]1Nc1ccc2cnc(Nc3ccc(-n4ccc(CO)n4)cc3F)cc2n1 [Compound 116, (3S,4S)-4-[[7-([2-fluoro-4-[3-(hydroxymethyl)pyrazol-1-yl]phenyl]amino)-1,6-naphthyridin-2-yl]amino]piperidine-3-carboxylic acid] | + (10-fold or less more active against CDK5 than CDK2)
100 to 1000 | < 10 | CN1CCC(S(=O)(=O)c2ccc3cnc(Nc4ccc(-n5ccc(C(=O)O)n5)cc4F)cc3n2)CC1 [Compound 198, 1-(3-fluoro-4-((2-((1-methylpiperidin-4-yl)sulfonyl)-1,6-naphthyridin-7-yl)amino)phenyl)-1H-pyrazole-3-carboxylic acid] | +++ (greater than 100-fold more active against CDK5 than CDK2)
100 to 1000 | < 10 | Cc1ccc(Nc2cc3nc(S(=O)(=O)C4CCN(C)CC4)ccc3cn2)c(F)c1 [Compound 294] | +++ (greater than 100-fold more active against CDK5 than CDK2)
10 to 100 | < 10 | CN1CCC(S(=O)(=O)c2ccc3cnc(Nc4cccc(C#CC(C)(C)O)c4)cc3n2)CC1 [Compound 256] | +++ (greater than 100-fold more active against CDK5 than CDK2)
100 to 1000 | < 10 | CC(c1ccc2cnc(Nc3ccc(-c4noc(=O)[nH]4)cc3F)cc2n1)C1CCN(C)CC1 (racemic) [Compound 368] | ++ (greater than 10-fold and less than or equal to 100-fold more active against CDK5 than CDK2)
100 to 1000 | < 10 | C=C(c1ccc2cnc(Nc3ccc(-n4ccc(CO)n4)cc3F)cc2n1)C1CCN(C)CC1 [Compound 168, [1-[3-fluoro-4-([2-[1-(1-methylpiperidin-4-yl)ethenyl]-1,6-naphthyridin-7-yl]amino)phenyl]pyrazol-3-yl]methanol] | +++ (greater than 100-fold more active against CDK5 than CDK2)
< 10 | < 10 | CN1CCC(C(=O)c2ccc3cnc(Nc4ccc(-n5cccn5)cc4F)cc3n2)CC1 [Compound 217, N-[2-fluoro-4-(pyrazol-1-yl)phenyl]-2-(1-methylpiperidine-4-carbonyl)-1,6-naphthyridin-7-amine] | ++ (greater than 10-fold and less than or equal to 100-fold more active against CDK5 than CDK2)
100 to 1000 | < 10 | CN1CCC(S(=O)(=O)c2ccc3cnc(Nc4ccc(-c5cncnc5)cc4F)cc3n2)CC1 [Compound 293] | +++ (greater than 100-fold more active against CDK5 than CDK2)
